What was measured:
Type in all cases: in vivo
[1] = tested on: Amaranthus retoflexus (AMARE); experiment: Post-emergence herbicide glasshouse test; conditions: post-emergence (sprayed after 8 days cultivation), 250 g/ha, evaluated after 13 days
Method: (§1) Seeds of a variety of test species are sown in standard soil in pots Amaranthus retoflexus (AMARE), Echinochloa crus-galli (ECHCG), Setaria faberi (SETFA)). After cultivation for one day (pre-emergence) or after 8 days cultivation (post-emergence) under controlled conditions in a glasshouse (at 24/16° C., day/night; 14 hours light; 65% humidity), the plants are sprayed with an aqueous spray solution derived from the formulation of the technical active ingredient in acetone/water (50:50) solution containing 0.5% Tween 20 (polyoxyethelyene sorbitan monolaurate, CAS RN 9005-64-5). Compounds are applied at 250 g/ha unless otherwise stated. The test plants are then grown in a glasshouse under controlled conditions in a glasshouse (at 24/16° C., day/night; 14 hours light; 65% humidity) and watered twice daily. After 13 days for pre and post-emergence, the test is evaluated for the percentage damage caused to the plant. The biological activities are shown in the following table on a five-point scale (5=81-100%; 4=61-80%; 3=41-60%; 2=21-40%; 1=0-20%).

[2] = tested on: Echinochloa crus-galli (ECHCG); experiment: Post-emergence herbicide glasshouse test; conditions: post-emergence (sprayed after 8 days cultivation), 250 g/ha, evaluated after 13 days
Method: as §1

[3] = tested on: Setaria faberi (SETFA); experiment: Post-emergence herbicide glasshouse test; conditions: post-emergence (sprayed after 8 days cultivation), 250 g/ha, evaluated after 13 days
Method: as §1

[4] = tested on: Amaranthus retoflexus (AMARE); experiment: Pre-emergence herbicide glasshouse test; conditions: pre-emergence (sprayed after one day cultivation), 250 g/ha, evaluated after 13 days
Method: as §1

[5] = tested on: Echinochloa crus-galli (ECHCG); experiment: Pre-emergence herbicide glasshouse test; conditions: pre-emergence (sprayed after one day cultivation), 250 g/ha, evaluated after 13 days
Method: as §1

[6] = tested on: Setaria faberi (SETFA); experiment: Pre-emergence herbicide glasshouse test; conditions: pre-emergence (sprayed after one day cultivation), 250 g/ha, evaluated after 13 days
Method: as §1

SMILES	percentage damage caused to the plant, five-point scale, AMARE [1]	percentage damage caused to the plant, five-point scale, ECHCG [2]	percentage damage caused to the plant, five-point scale, SETFA [3]	percentage damage caused to the plant, five-point scale, AMARE [4]	percentage damage caused to the plant, five-point scale, ECHCG [5]	percentage damage caused to the plant, five-point scale, SETFA [6]
Clc1cnc(Oc2cccc3cccc(Oc4ncc(Cl)cn4)c23)nc1 [Compound 1.001, 5-CHLORO-2-[[8-(5-CHLOROPYRIMIDIN-2-YL)OXY-1-NAPHTHYL]OXY]PYRIMIDINE]	3 (3=41-60%)	4 (4=61-80%)	4 (4=61-80%)	3 (3=41-60%)	3 (3=41-60%)	4 (4=61-80%)
FC(F)(F)CCCc1cccc2cccc(Oc3ncc(Cl)cn3)c12 [Compound 1.002, 5-chloro-2-[[8-(4,4,4-trifluorobutyl)-1-naphthyl]oxy]pyrimidine]	3 (3=41-60%)	2 (2=21-40%)	3 (3=41-60%)	1 (1=0-20%)	1 (1=0-20%)	1 (1=0-20%)
FC(F)(F)CCCc1ncnc2cccc(Oc3ncc(Cl)cn3)c12 [Compound 1.003, 5-(5-chloropyrimidin-2-yl)oxy-4-(4,4,4-trifluorobutyl)quinazoline]	5 (5=81-100%)	3 (3=41-60%)	3 (3=41-60%)	5 (5=81-100%)	5 (5=81-100%)	5 (5=81-100%)
CCCCc1nc(C(F)(F)F)nc2cccc(Oc3ncc(Cl)cn3)c12 [Compound 1.005]	5 (5=81-100%)	5 (5=81-100%)	5 (5=81-100%)	5 (5=81-100%)	5 (5=81-100%)	5 (5=81-100%)
FC(F)(F)CCOc1nc(C(F)(F)F)nc2cccc(Oc3ncc(Cl)cn3)c12 [Compound 1.006, 5-(5-chloropyrimidin-2-yl)oxy-2-(trifluoromethyl)-4-(3,3,3-trifluoropropoxy)quinazoline]	5 (5=81-100%)	3 (3=41-60%)	3 (3=41-60%)	5 (5=81-100%)	3 (3=41-60%)	5 (5=81-100%)
Cc1nc(OCCC(F)(F)F)c2c(Oc3ncc(Cl)cn3)cccc2n1 [Compound 1.007]	3 (3=41-60%)	1 (1=0-20%)	1 (1=0-20%)	2 (2=21-40%)	1 (1=0-20%)	3 (3=41-60%)
FC(F)(F)CCOc1ncnc2cccc(Oc3ncc(Cl)cn3)c12 [Compound 1.008]	3 (3=41-60%)	1 (1=0-20%)	1 (1=0-20%)	5 (5=81-100%)	1 (1=0-20%)	5 (5=81-100%)
FC(F)(F)CCOc1nccc2cccc(Oc3ncc(Cl)cn3)c12 [Compound 1.009]	1 (1=0-20%)	1 (1=0-20%)	1 (1=0-20%)	1 (1=0-20%)	1 (1=0-20%)	1 (1=0-20%)
Fc1cnc(Oc2cccc3nc(C(F)(F)F)nc(CCCC(F)(F)F)c23)nc1 [Compound 1.011]	5 (5=81-100%)	5 (5=81-100%)	5 (5=81-100%)	5 (5=81-100%)	5 (5=81-100%)	5 (5=81-100%)
FC(F)(F)CCCc1nccc2cccc(Oc3ncc(Cl)cn3)c12 [Compound 1.012, 8-(5-chloropyrimidin-2-yl)oxy-1-(4,4,4-trifluorobutyl)isoquinoline]	4 (4=61-80%)	4 (4=61-80%)	4 (4=61-80%)	4 (4=61-80%)	5 (5=81-100%)	5 (5=81-100%)
Cc1nc(CCCC(F)(F)F)c2c(Oc3ncc(Cl)cn3)cccc2n1 [Compound 1.013, 5-(5-chloropyrimidin-2-yl)oxy-2-methyl-4-(4,4,4-trifluorobutyl)quinazoline]	3 (3=41-60%)	4 (4=61-80%)	4 (4=61-80%)	3 (3=41-60%)	4 (4=61-80%)	5 (5=81-100%)
COc1nc(CCCC(F)(F)F)c2c(Oc3ncc(Cl)cn3)cccc2n1 [Compound 1.014, 5-(5-chloropyrimidin-2-yl)oxy-2-methoxy-4-(4,4,4-trifluorobutyl)quinazoline]	5 (5=81-100%)	5 (5=81-100%)	5 (5=81-100%)	5 (5=81-100%)	5 (5=81-100%)	5 (5=81-100%)
FC(F)(F)CCCc1cc(C(F)(F)F)nc2cccc(Oc3ncc(Cl)cn3)c12 [Compound 1.015, 5-(5-chloropyrimidin-2-yl)oxy-4-(4,4,4-trifluorobutyl)-2-(trifluoromethyl)quinoline]	5 (5=81-100%)	4 (4=61-80%)	4 (4=61-80%)	5 (5=81-100%)	5 (5=81-100%)	5 (5=81-100%)
Cc1nc(CCCC(F)(F)F)c2c(Oc3ncc(Cl)cn3)ccc(Cl)c2n1 [Compound 1.019, 8-chloro-5-(5-chloropyrimidin-2-yl)oxy-2-methyl-4-(4,4,4-trifluorobutyl)quinazoline]	4 (4=61-80%)	3 (3=41-60%)	2 (2=21-40%)	2 (2=21-40%)	4 (4=61-80%)	4 (4=61-80%)
Cc1cnc(Oc2cccc3nc(C(F)(F)F)nc(CCCC(F)(F)F)c23)nc1 [Compound 1.020]	4 (4=61-80%)	5 (5=81-100%)	5 (5=81-100%)	5 (5=81-100%)	5 (5=81-100%)	5 (5=81-100%)
FC(F)(F)CCCCc1nc(C(F)(F)F)nc2cccc(Oc3ncc(Cl)cn3)c12 [Compound 1.021]	5 (5=81-100%)	4 (4=61-80%)	4 (4=61-80%)	5 (5=81-100%)	5 (5=81-100%)	5 (5=81-100%)
FC(F)(F)CCc1nc(C(F)(F)F)nc2cccc(Oc3ncc(Cl)cn3)c12 [Compound 1.022]	4 (4=61-80%)	4 (4=61-80%)	4 (4=61-80%)	5 (5=81-100%)	5 (5=81-100%)	5 (5=81-100%)
FC(F)(F)CCCc1nc(C(F)(F)F)nc2cccc(Oc3ncc(Br)cn3)c12 [Compound 1.025]	4 (4=61-80%)	5 (5=81-100%)	4 (4=61-80%)	4 (4=61-80%)	5 (5=81-100%)	5 (5=81-100%)
